Experimental findings from a melting point compilation (Tetko et al.; mined from patent text by program, amines drawn as free bases though some values may be those of a salt) are described below.

For orientation: melting point means the temperature of the solid-liquid transition.

Some results are limits rather than exact numbers.

Compound `CC1(C)CC(S(=O)(=O)Cc2c(C(F)(F)F)nn3c2OCCC3)=NO1` yielded a melting point of 151 to 152 °C.

The compound `COc1cc(Nc2nccc(-c3ccc(N)cc3)n2)cc(OC)c1OC` had a melting point of 195 °C.

In the case of `CCOc1cccnc1CSCCNC(=C[N+](=O)[O-])SC`, the melting point lay within 126 to 127 °C.

`CC1(C)Oc2ccc(-n3c(=O)[nH]c4cccnc43)cc2O1`: the melting point was 223 to 224 °C.

Turning to `OCCCc1cnoc1-c1ccc(Cl)cc1`, the melting point lay in the range of 58 to 59 °C.

On to `O=C1Cc2cc(-c3cnc4[nH]c(=O)n(CC5CCCCC5)c4n3)ccc2N1`, for which the melting point lay in the range of 313 to 316 °C.

`[O-][N+](=Cc1ccc(OCc2ccccc2)cc1)C1CCCC1` showed a melting point of 115 °C.

The compound `Cn1nc(-c2cc([N+](=O)[O-])c(O)cc2F)c(Cl)c1C(F)(F)F` yielded a melting point of 89 to 90 °C.

On to `CC1(C)CC(=O)c2cc3c(cc2O1)OCCO3`, for which the melting point was in the range of 118 to 119 °C.

In the case of `CCOC(=O)c1nccn1Cc1ccccc1N`, the melting point was 104 to 106 °C.

`CCc1cc(-c2nc(C)c(-c3ccnc(Nc4ccc(N5CCOCC5)cc4)n3)s2)ccn1` returned a melting point of 214 to 215 °C.

With `COC(=O)/C=C/C=C(\c1ccc(OC)cc1)c1ccccc1OC`, the melting point lay in the range of 99.5 to 102 °C.

Compound `CS(=O)(=O)C(=C1CN(C(c2ccccc2)c2ccccc2)C1)c1cccc(N)c1` had a melting point of 197 °C.

`O=c1[nH]c2ncc(-c3ccc(-c4nnc[nH]4)cc3)nc2n1CCN1CCOCC1` displayed a melting point of 295 to 297 °C.

With `CCCOC(=Nc1sc(Cl)cc1C#N)OCCC`, the melting point was in the range of 55 to 57 °C.

`O=Cc1c2ccccc2c(CCCl)c2ccccc12`: the melting point lay within 158 to 159 °C.

As for `CS(=O)CCNC(=O)CC(O)(Cn1cncn1)c1ccc(Cl)cc1Cl` (stereo not drawn), the melting point is 168 to 170 °C.

As for `COc1cc(NC(C)=O)c(Cl)cc1C(=O)[NH+]([O-])C1CCN(CC2CCCCC2)CC1` (stereo not drawn), the melting point was 206 to 208 °C.

Take `COC(=O)C1CNC(CCc2ccccc2)=N1` (racemic): the melting point is 136 to 141 °C.

Compound `CCOC(=O)C1=C(C)S(=O)CCS1(=O)=O` (stereo not drawn) had a melting point of 138 to 140 °C.

As for `CCOC(=O)c1ccc2c3ccccc3n(Cc3ccccc3)c2c1C`, the melting point was 79 to 80 °C.

With `CCC(=CC=C(C#N)C#N)NCCO`, the melting point lay in the range of 88 to 90 °C.

Regarding `O=C1Nc2ccc(F)cc2C1CCCCN1CCN(c2ccccn2)CC1` (stereo not drawn), the melting point was in the range of 132 to 134 °C.

In turn, `CC(C)(C)NS(=O)(=O)c1ccccc1OC(F)(F)F` came in with a melting point of 137 °C.

`COc1nc(NC(=O)NS(=O)(=O)c2ccccc2OC(F)F)nc(N(C)C)n1` gave a melting point of 171 to 172 °C.

Take `O=C(Nc1cc(C(F)(F)F)ccc1O)Nc1ccccc1C(F)(F)F`: the melting point fell in the range of 158 to 159 °C.

`CS(=O)(=O)c1ccc(-c2cnn(-c3ccccc3C=O)c(=O)c2-c2ccc(F)cc2)cc1`: the melting point lay within 234 to 236 °C.

`CC(C)(C)OC(=O)c1nc(C2CC2)[nH]c(=O)c1OCc1ccccc1` had a melting point of 164 °C.

Compound `CCCCOCCOc1ccc(-c2ccc3c(c2)C=C(C(=O)Nc2ccc(S(=O)CCn4cnnc4)cc2)CCN3CC(C)C)cc1` (stereo not drawn) yielded a melting point of 168 to 170 °C.

For `N=C(NC=Cc1ccc(N)cc1)c1ccccc1`, the melting point fell in the range of 166 to 168 °C.

`C[C@]1(CN2CCN(C(=O)c3ccc(Cl)cc3)CC2)Cn2cc([N+](=O)[O-])nc2O1` registered a melting point of 173 to 174 °C.

Turning to `Cc1cc(NC(=O)Oc2ccc([N+](=O)[O-])cc2)cc(C(F)(F)F)c1`, the melting point is 136 to 138 °C.

Turning to `CCSc1ccc(CC(=O)NC(NC(=NC#N)Nc2cccc3ncccc23)C(C)(C)C)cc1` (stereo not drawn), the melting point was 189 to 190 °C.

Compound `COc1ccc(N2Cc3nc(CO)nn3-c3cccnc32)cc1` came in with a melting point of 190 to 194 °C.

Regarding `COc1ccc(C2CCCCC2)cc1-c1csc(NC(=O)C2CCN(C(=O)c3cnccn3)CC2)n1`, the melting point stood at 129 °C.

In the case of `Cc1cc(Br)c2nc(Cl)ccc2c1`, the melting point was in the range of 107 to 108 °C.

For `CCCCOC(=O)C(C)NC(=O)c1cc([N+](=O)[O-])cc([N+](=O)[O-])c1` (stereo not drawn), the melting point was 93 to 96 °C.

In the case of `CCCCCc1ccc(CCc2ccc(-c3ccc(Cl)c(F)c3)cc2)cc1`, the melting point worked out at 153 °C.

Compound `Nc1nc(N)nc(NC2CCCCC2)n1` came in with a melting point of 151 °C.

Compound `O=C(Cc1ccc(CC(=O)Oc2cc(O)cc(O)c2)cc1)Oc1cc(O)cc(O)c1` had a melting point of 220 to 225 °C.

`CS(=O)(=O)Oc1ccc(-c2c3ccccc3c(I)c3sc4ccccc4c23)cc1` showed a melting point of 176 to 186 °C.

`COc1ccc(Oc2cccc(NC(=O)c3ccn4c3CSC4c3cccnc3)c2)cc1` (stereo not drawn): the melting point was 120 °C.

With `O=C1c2ccccc2COc2ccc(CCCCl)cc21`, the melting point fell in the range of 69 to 72 °C.

Compound `O=C(O)C(=O)CC(=O)c1cccn1Cc1ccccc1` came in with a melting point of 150 to 151 °C.

Turning to `Cc1cccc(S(=O)(=O)n2c(CCCC(=O)O)cc3nc(Cl)ccc32)c1`, the melting point stood at 165 °C.

`COC(=O)C(C)(C)Cc1ccc2oc(-c3nc(C(C)(C)C)cs3)cc2c1` had a melting point of 42 to 43 °C.

The compound `O=c1c(Cl)nc2ccccc2n1-c1ccc(Cl)cc1` yielded a melting point of more than 300 °C.

Regarding `Cc1c(OCCCCSCc2ccncc2)ccnc1CNc1cnc2ccccc2c1`, the melting point lay in the range of 128 to 129 °C.

Compound `COC(=O)c1ccc2nc(C)n(Cc3ccc(Cl)cc3OC)c2n1` yielded a melting point of 166 to 168 °C.

In the case of `CN(C)CCCn1cc(C2=C(c3c[nH]c4ccccc34)C(=O)N(C)C2=O)c2ccccc21`, the melting point lay within 86 to 90 °C.

Compound `CCOC(=O)C1=CC(C(=O)c2ccccc2O)=CN2CCc3c([nH]c4ccccc34)C12C(=O)OCC` (stereo not drawn) showed a melting point of 209 °C.

In the case of `c1cc2c3c(c1)nc(N1CCC(c4c[nH]cn4)CC1)n3CCC2`, the melting point was 250 to 255 °C.

`O=C(O)CCc1cnoc1-c1ccccc1` registered a melting point of 90 to 91 °C.

The compound `O=C1N(c2cc(Cl)cc(Cl)c2)C(=O)C2(Cc3ccc(Br)cc3)CCCN12` (stereo not drawn) showed a melting point of 69.4 °C.

As for `O=C(O)C1=Cc2cc(Cl)c(Oc3cccnc3Cl)cc2OC1C(F)(F)F` (stereo not drawn), the melting point fell in the range of 213 to 216 °C.

The compound `CCc1c(Cl)c2ccccn2c1C(=O)c1ccc(O)cc1` displayed a melting point of 179 °C.

As to `CN(C)C(=O)Nc1ccc(OCCCC(=O)c2ccccc2)c(Cl)c1`, the melting point lay in the range of 129 to 130 °C.

In turn, `CC(CCNC1=Nc2cccc3cccc1c23)c1ccncc1` (stereo not drawn) displayed a melting point of 220 to 221 °C.

In turn, `O=C(NC(=S)N1CCN(c2nc3cccccc-3n2)CC1)c1ccccc1` showed a melting point of 182 to 185 °C.

With `CCOC(=O)NS(=O)(=O)c1ccc2c(c1)C(=O)CO2`, the melting point was in the range of 118 to 119 °C.

Consider `COc1ccc2c(c1CC#N)Sc1c(ccc(OC)c1CN1C(=O)c3ccccc3C1=O)N2Cc1ccccc1`, for which the melting point came to 230 °C.

Regarding `CC(C)Oc1ccc(OC(=O)c2ccc(C(=O)Oc3ccc(OC(C)C)cc3)cc2)cc1`, the melting point lay in the range of 192 to 194 °C.

`CCC=C1C([N+](=O)[O-])C2SCCCN2C(=O)N1C` (stereo not drawn) yielded a melting point of 155 to 156 °C.

The compound `O=C(O)c1ccc2c(c1)C1(c3ccccc3-2)c2ccccc2-c2ccc(C(=O)O)cc21` came in with a melting point of 352 °C.

The compound `COC(=O)c1cc(I)ccc1Nc1ccccc1C(=O)O` returned a melting point of 230 to 232 °C.

In turn, `Fc1ccc(-n2ncc3c2-c2ccccc2C3)cc1` had a melting point of 104 to 105 °C.

`CC(O)(C(O)CI)C(O)CI` (stereo not drawn) came in with a melting point of 105 to 106 °C.

For the compound `COc1ccc(C(=O)c2c(-c3ccc(OC)cc3)oc3cc(OC)ccc23)cc1`, the melting point was 106 to 109 °C.

The compound `O=C(NCc1cccnc1)OCc1ccccc1` returned a melting point of 73.6 to 77.1 °C.

Take `COc1cc(-c2cnc3[nH]cc(C(=O)CCC(C)OC)c3n2)cc(OC)c1OC` (stereo not drawn): the melting point was in the range of 150 to 151 °C.

Consider `O=[N+]([O-])c1ccc(C=Cc2nc(Nc3ccc(O)cc3)c3ccccc3n2)o1`, for which the melting point is 250 to 260 °C.

Compound `CN(C1CC(C)(C)Oc2ccc(O)cc21)S(C)(=O)=O` (stereo not drawn) returned a melting point of 159 to 161 °C.

`CCN(CC)c1cc(F)cc2nc3n(c12)CCCN3c1ccc(Cl)cc1Cl` had a melting point of 142 to 145 °C.

`CCCCNS(=O)(=O)c1cc(C(=O)O)cc(NCc2ccccc2)c1Oc1ccccc1` returned a melting point of 212 °C.

`CCCn1nc(C#N)cc1CC(C)(C)NC(=O)OC(C)(C)C` yielded a melting point of 115 to 116 °C.

Turning to `COc1ccc(SSc2ccc(OC)cc2C(=O)Nc2ccc(S(N)(=O)=O)cc2)c(C(=O)Nc2ccc(S(N)(=O)=O)cc2)c1`, the melting point was in the range of 242 to 243 °C.

Regarding `CCC(Oc1cncc(Cl)c1)C(=O)O` (stereo not drawn), the melting point is 98 to 101 °C.

Compound `COc1cccc(C=CCC(=O)O)c1OC` came in with a melting point of 84 to 86 °C.

In turn, `O=C(NCCOc1ccc(CC(Oc2cc(F)c(F)c(F)c2)C(=O)O)cc1)c1ccc(-c2ccccn2)cc1` (stereo not drawn) showed a melting point of 144 to 146 °C.

With `NC(=S)Nc1ccc(CCNCc2cccc(Cl)c2)cc1`, the melting point lay in the range of 132 to 134 °C.

With `CCN1c2ncc(CO)cc2C(=O)N(C)c2ccc(Cl)nc21`, the melting point was in the range of 166 to 168 °C.

Compound `O=C(O)c1ccc2c(c1)S(=O)(=O)c1ccccc1O2` registered a melting point of 286 °C.

`CC(C)(N)c1ccc(-c2nc(Nc3ccc(CCn4ccnc4)cc3)ncc2C#N)cc1`: the melting point came to 184 °C.

On to `C=CCc1c(OC)ccc(-c2cc(-c3ccc(Cl)cc3)n(-c3ccc(OC)cc3)n2)c1OC`, for which the melting point was 44 to 46 °C.

`Cc1cnc(NC(=O)c2cc(Oc3cnc(C(=O)N(C)C)cn3)cc(O[C@@H](C)COC(F)F)c2)cn1` came in with a melting point of 75 °C.

Regarding `CCOC(=O)C(=NO)C(C)C`, the melting point lay within 54 to 55 °C.

For the compound `Clc1nccc2scc(Br)c12`, the melting point was 153 to 155 °C.

Take `O=C(CC(c1ccc(OC(F)F)c(OCC2CC2)c1)N1C(=O)c2ccccc2C1=O)NO` (stereo not drawn): the melting point lay in the range of 129 to 131 °C.
